The target in one assay is recombinant human PKR (Homo sapiens, UniProt P30613). In words: pyruvate kinase (PKR) activity test, activation of recombinant enzyme (fluorescence kit). Type of assay: biochemical. The protocol: To test the activation effect of the compound of the present disclosure on recombinant human PKR.
3.1 A recombinant human PKR enzyme solution was prepared at a concentration of 60 ng/well (a 20 µL reaction system), and 5 µL of the solution was added into each well of a black transparent bottom 384-well plate.
3.2 Compound solutions were prepared at different concentrations, with the final concentrations of 1000/300/100 nM (containing 1% DMSO). Each 5 µL of the compound solution was added into the plate in step 3.1 and mixed well. The plate was incubated at room temperature for 10 min.
3.3 A reaction system was prepared according to the instructions of a kit (as shown in the table below), and 10 µL of the reaction system was added into each well of the 384-well plate, and mixed uniformly with the solution in step 3.2.
3.4 The 384-well plate was placed on a microplate reader to detect the fluorescence value at 540/590 nm, where the value was read every 2 minutes and the detection was conducted continuously for 1 hour.
3.5 The Slope value within the detection time was calculated, and the 1% DMSO well was used as a control well to calculate a compound activation rate. Activation rate % = (Slopeofcompoundwell/Slopeofcontrolwell) × 100% [formula]
With the log value of the compound concentration as the X axis and the percentage activation rate as the Y axis, a dose-effect curve was fitted with the log(agonist) vs. response-variable slope of the analysis software GraphPad Prism 5, and the AC50 value of the activity of each compound against PKR was obtained. Y = min + (max−min)/(1+10^(∧)((LogAC50−X)×Hillslope)). [formula]

In assay [1] the target is T1, PKR in ex vivo red blood cells from healthy individuals (Homo sapiens, UniProt P30613).
T1 construct: endogenous in cells; host or cells: human red blood cells isolated from fresh peripheral blood of healthy individuals
In words: ex vivo pyruvate kinase (PKR) activity experiment, red blood cells of healthy individuals. Type of assay: cell-based. As to conditions: 3 hours co-cultivation. The procedure: To test the effects of the compound of the present disclosure on PKR activation in ex vivo red blood cells from healthy individuals and patients with thalassemia.
• i. 5 g of glucose, 85 mg of adenine, and 2.625 g of mannitol were weighed and added into a 50 mL centrifuge tube. 40 mL of PBS was added to dissolve (sonicate for 30 minutes until completely dissolved). The solution was filtered through a 0.22 µm filter, then added to 460 mL of sterile PBS and mixed thoroughly.
• i. Fresh human peripheral blood was collected. K2EDTA was used as the anticoagulant. 1 part anticoagulant with 9 parts blood was mixed, then centrifuged at 500 g for 10 minutes at room temperature to remove the plasma. • ii. Packed red blood cells: 1.5 volumes of PBS were added, then centrifuged at 2000 ×g for 5 minutes at room temperature. After centrifugation, the supernatant was removed. This step was repeated twice. • iii. Diluted red blood cells: 1.5 volumes of PBS were added, then resuspended and mixed thoroughly. • iv. The diluted red blood cells were slowly added to 0.5 volume of 70% isotonic solution (e.g., 7.5 mL of diluted red blood cells + 3 mL of 70% isotonic solution Percoll) and centrifuged at 4000 ×g for 20 minutes at 4°C. • v. The supernatant was removed. The red blood cells at the bottom were washed once with 4-5 mL of PBS to elute the Percoll gel, and then centrifuged at 2000 ×g for 5 minutes at room temperature. • vi. The supernatant was removed. The red blood cells were counted and then diluted in AGAM medium containing 10% FBS to a density of 2 × 10^8 cells/mL for storage at 4°C.
i. The red blood cells were seeded into a 96-well plate at a uniform density of 1 × 10^7 cells/mL, with 100 µL per well. The test compounds (dissolved in DMSO) were diluted and added to the cell culture medium, resulting in final compound concentrations of 3000, 1000, 300, 100, 10, 3, and 1 nM (with 1% DMSO). The cells and compounds were co-cultivated for 3 hours in a 37°C incubator with 5% CO2. Subsequently, the plate was centrifuged at 2000 g for 20 minutes, and the supernatant was discarded. 100 µL of red blood cell lysis buffer was added to the cell pellet, vortexed for 20 minutes, and centrifuged at 4000 g for 5 minutes. The supernatant was collected for analysis. ii. The reaction system was prepared according to the kit instructions (shown as the table below), 10 µL of the reaction system was added to each well of a 384-well plate, and 10 µL of red blood cell lysis buffer was took and mixed well (20 µL reaction system).
iii. A black, transparent-bottomed 384-well plate was placed in a microplate reader to measure fluorescence at 540/590 nm. The fluorescence was read every 2 minutes for 1 hour.
i. The Slope value was calculated over the assay time. Compound activation percentage was calculated using the 1% DMSO well as the control well. Activation percentage = (Slope of compound well / Slope of control well) × 100% ii. Dose-response curve was fit using the logarithmic compound concentration on the X-axis and the percent activation percentage on the Y-axis, the log(agonist) vs. response - variable slope function in GraphPad Prism 5 was used to determine the AC50 value for each compound on PKR activity. Y = min + (max−min)/(1+10^(∧)((LogAC50−X)×Hillslope)). [formula] The PKR agonist effects of the compound of the present disclosure on ex vivo red blood cells from healthy individuals and thalassemia patients were determined using the above assay. The AC50 values measured on ex vivo red blood cells from healthy individuals are as follows (A represents 0-100 nM, B represents 101-300 nM, and C represents 300-1000 nM): […]

recombinant human PKR, sequence (P30613 whole entry): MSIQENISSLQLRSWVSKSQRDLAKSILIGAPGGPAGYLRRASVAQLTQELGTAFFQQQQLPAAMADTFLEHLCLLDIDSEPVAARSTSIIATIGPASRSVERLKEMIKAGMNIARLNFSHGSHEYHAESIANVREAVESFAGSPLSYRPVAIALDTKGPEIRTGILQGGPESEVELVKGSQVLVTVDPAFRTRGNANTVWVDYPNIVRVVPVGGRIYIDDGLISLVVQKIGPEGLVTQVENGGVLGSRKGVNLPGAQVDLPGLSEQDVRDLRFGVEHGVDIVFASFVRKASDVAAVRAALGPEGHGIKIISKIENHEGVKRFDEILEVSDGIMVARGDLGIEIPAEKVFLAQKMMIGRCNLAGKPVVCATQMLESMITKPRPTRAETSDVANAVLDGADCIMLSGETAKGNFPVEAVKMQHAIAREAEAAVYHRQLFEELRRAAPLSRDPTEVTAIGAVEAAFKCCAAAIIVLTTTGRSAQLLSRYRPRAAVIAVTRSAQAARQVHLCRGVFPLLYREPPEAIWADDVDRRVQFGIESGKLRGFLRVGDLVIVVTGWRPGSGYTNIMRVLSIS
T1 sequence (P30613 whole entry): as above

For the compound `Cc1nc2ccc(S(=O)(=O)N3CC(=C4CN(C(=O)[C@H](CO)c5ccccc5)C4)C3)cc2s1` [Compound 35, (S)-3-hydroxy-1-(1'-((2-methylbenzo[d]thiazol-6-yl)sulfonyl)-1',4'-dihydro-2H,2'H-[3,3'-diazetidinylidene]-1(4H)-yl)-2-phenylpropan-1-one], the AC50 (on recombinant human PKR; in assay [1]) was under 100 nM each time.

As for `CN1CCOc2ccc(S(=O)(=O)N3CC(=C4CN(C(=O)[C@H](CO)c5ccccc5)C4)C3)cc21` [Compound 39, (S)-3-hydroxy-1-(1'-((4-methyl-3,4-dihydro-2H-benzo[b][1,4]oxazin-6-yl)sulfonyl)-1',4'-dihydro-2H, 2'H-[3,3'-diazetidinylidene]-1(4H)-yl)-2-phenylpropan-1-one], the AC50 (on recombinant human PKR; in assay [1]) was under 100 nM each time.

Consider `O=C([C@H](CO)c1ccccc1)N1CC(=C2CN(S(=O)(=O)c3ccc(OC(F)F)cn3)C2)C1` [Compound 80, (S)-1-(1'-((5-(difluoromethoxy)pyridin-2-yl)sulfonyl)-1',4'-dihydro-2H,2'H-[3,3'-diazetidinylidene]-1 (4H)-yl)-3-hydroxy-2-phenylpropan-1-one], for which the AC50 (on recombinant human PKR; in assay [1]) was under 100 nM in each case.

As for `O=C(Cc1ccccc1)N1CC(=C2CN(S(=O)(=O)c3ccc4ncsc4c3)C2)C1` [Compound 47, 1-(1'-(benzo[d]thiazol-6-ylsulfonyl)-1',4'-dihydro-2H,2'H-[3,3'-diazetidinylidene]-1(4H)-yl)-2-phenyl ethan-1-one], the AC50 (at recombinant human PKR; in assay [1]) was 300 to 1000 nM each time.

For `NC(C(=O)N1CC(=C2CN(S(=O)(=O)c3ccc(OC(F)F)cc3)C2)C1)c1ccccc1` (stereo not drawn) [Compound 21, 2-amino-1-(1'-((4-(difluoromethoxy)phenyl)sulfonyl)-1',4'-dihydro-2H,2'H-[3,3'-diazetidinylidene]-1 (4H)-yl)-2-phenylethan-1-one], the concentration at half-maximal activity (AC50) at recombinant human PKR was 300 to 1000 nM; in assay [1], under 100 nM.

As to `O=C(C(CO)c1ccc(F)cc1)N1CC(=C2CN(S(=O)(=O)c3cnc4c(c3)OCCO4)C2)C1` (stereo not drawn) [Compound 19, 1-(1'-((2,3-dihydro-[1,4]dioxolane[2,3-b]pyridin-7-yl)sulfonyl)-1',4'-dihydro-2H,2'H-[3,3'-diazetidinylidene]-1(4H)-yl)-2-(4-fluorophenyl)-3-hydroxypropan-1-one], the half-maximal activity concentration (AC50) is 101 to 300 nM at recombinant human PKR and 300 to 1000 nM in assay [1].

In the case of `COc1ccc(S(=O)(=O)N2CC(=C3CN(C(=O)[C@H](CO)c4ccccc4)C3)C2)nc1` [Compound 67, (S)-3-hydroxy-1-(1'-((5-methoxypyridin-2-yl)sulfonyl)-1',4'-dihydro-2H,2'H-[3,3'-diazetidinylidene]-1(4H)-yl)-2-phenylpropan-1-one], the AC50 (on recombinant human PKR; in assay [1]) was under 100 nM in each case.

For the compound `O=C(C1NCc2ccccc21)N1CC(=C2CN(S(=O)(=O)c3ccc4ncsc4c3)C2)C1` (stereo not drawn) [Compound 64, (1'-(benzothiazol-6-ylsulfonyl)-1',4'-dihydro-2H,2'H-[3,3'-diazetidinylidene]-1(4H)-yl)(isoindolin-1-yl)methanone], the AC50 (on recombinant human PKR; in assay [1]) was 300 to 1000 nM throughout.

`COc1ccc(S(=O)(=O)N2CC(=C3CN(C(=O)[C@H](CO)c4ccc(F)cc4F)C3)C2)nc1` [Compound 87, (S)-2-(2,4-difluorophenyl)-3-hydroxy-1-(1'-((5-methoxypyridin-2-yl)sulfonyl)-1',4'-dihydro-2H,2'H-[3,3'-diazetidinylidene]-1(4H)-yl)propan-1-one]: the AC50 (on recombinant human PKR; in assay [1]) was under 100 nM each time.

For the compound `CCOc1ccc(S(=O)(=O)N2CC(=C3CN(C(=O)[C@H](CO)c4ccccc4)C3)C2)nc1` [Compound 72, (S)-1-(1'-((5-ethoxypyridin-2-yl)sulfonyl)-1',4'-dihydro-2H,2'H-[3,3'-diazetidinylidene]-1(4H)-yl)-3-hydroxy-2-phenylpropan-1-one], the AC50 (at recombinant human PKR; in assay [1]) was under 100 nM each time.

In turn, `COc1ccc(S(=O)(=O)N2CC(=C3CN(C(=O)[C@H](CO)c4ccccc4)C3)C2)cc1` [Compound 5, (S)-3-hydroxy-1-(1'-((4-methoxyphenyl)sulfonyl)-1',4'-dihydro-2H,2'H-[3,3'-diazetidinylidene]-1(4H )-yl)-2-phenylpropan-1-one] yielded an AC50 in assay [1] of 101 to 300 nM.

Regarding `O=C(C(CO)c1ccc(F)cc1)N1CC(=C2CN(S(=O)(=O)c3ccc(OC(F)F)cc3)C2)C1` (stereo not drawn) [Compound 16, 1-(1'-((4-(difluoromethoxy)phenyl)sulfonyl)-1',4'-dihydro-2H,2'H-[3,3'-diazetidinylidene]-1(4H)-yl)-2-(4-fluorophenyl)-3-hydroxypropan-1-one], the AC50 in assay [1] was under 100 nM.

`N#Cc1ccc(S(=O)(=O)N2CC(=C3CN(C(=O)[C@H](CO)c4ccccc4)C3)C2)nc1` [Compound 70, (S)-6-((1'-(3-hydroxy-2-phenylpropionyl)-1',4'-dihydro-2H,2'H-[3,3'-diazetidinylidene]-1(4H)-yl)sulfonyl)nicotinonitrile]: in assay [1], the AC50 was in the range of 101 to 300 nM.

In assay [1], `O=C([C@H](CO)c1ccccc1)N1CC(=C2CN(S(=O)(=O)c3ccc(OC4CC4)cn3)C2)C1` [Compound 82, (S)-1-(1'-((5-cyclopropoxypyridin-2-yl)sulfonyl)-1',4'-dihydro-2H,2'H-[3,3'-diazetidinylidene]-1(4H) -yl)-3-hydroxy-2-phenylpropan-1-one] registered an AC50 of 101 to 300 nM.

Take `O=C(C(CO)c1cccnc1)N1CC(=C2CN(S(=O)(=O)c3ccc4ncsc4c3)C2)C1` (stereo not drawn) [Compound 48, 1-(1'-(benzo[d]thiazol-6-ylsulfonyl)-1',4'-dihydro-2H,2'H-[3,3'-diazetidinylidene]-1(4H)-yl)-3-hydroxy-2-(pyridin-3-yl)propan-1-one]: the AC50 in assay [1] fell in the range of 300 to 1000 nM.

In turn, `O=C([C@H](CO)c1ccccc1)N1CC(=C2CN(S(=O)(=O)c3ccc(OC(F)(F)F)cc3)C2)C1` [Compound 9, (S)-3-hydroxy-2-phenyl-1-(1'-((4-(trifluoromethoxy)phenyl)sulfonyl)-1',4'-dihydro-2H,2'H-[3,3'-diazetidinylidene]-1(4H)-yl)propan-1-one] came in with an AC50 in assay [1] of under 100 nM.

In the case of `O=C([C@H](CO)c1ccccc1)N1CC(=C2CN(S(=O)(=O)c3cccnc3)C2)C1` [Compound 68, (S)-3-hydroxy-2-phenyl-1-(1'-(pyridin-3-ylsulfonyl)-1',4'-dihydro-2H,2'H-[3,3'-diazetidinylidene]-1(4H)-yl)propane-1-one], the AC50 in assay [1] was in the range of 101 to 300 nM.

The values are drawn from patent EP4721737A1, “USE OF PHARMACEUTICAL COMPOSITION COMPRISING COMPOUND HAVING BIS(AZANYLYLIDENE) SULFONYL STRUCTURE FOR TREATING ANEMIA-RELATED DISEASES” (Scinnohub Pharmaceutical Co., Ltd., priority 2023, dated 2024).
